In US9657006B2, “Macrocyclic factor VIIa inhibitors” (BRISTOL-MYERS SQUIBB COMPANY, priority 2013, dated 2017):
pKi: −log10 of the molar value. Where a name gives a salt, the structure may show the parent alone. Read-outs that look alike come from different tables or passages of the source.

Tests used:
[1] = amide bond
FVIIa = molecular target: T1, FVIIa (Homo sapiens, UniProt P08709); assay: FVIIa Ki (25° C.): FVIIa peptide substrate assay; format: biochemical; conditions: S2288 peptide substrate, full-length human TF
T1 construct: with about 1% of the total amount in the proteolytically active form factor VIIa
Experimental: The effectiveness of compounds of the present invention as inhibitors of the coagulation Factors, VIIa, IXa, Xa, XIa, XIIa, plasma kallikrein or thrombin, tissue kallikrein and activated protein C, can be determined using a relevant purified serine protease, respectively, and an appropriate synthetic substrate. The rate of hydrolysis of the chromogenic or fluorogenic substrate by the relevant serine protease was measured both in the absence and presence of compounds of the present invention. […] A decrease in the rate of absorbance or fluorescence change in the presence of inhibitor is indicative of enzyme inhibition. Such methods are known to one skilled in the art. The results of this assay are expressed as the inhibitory constant, Ki.
a. FVIIa Ki (25° C.): FVIIa Peptide Substrate Assay
S2288 (range of concentrations) and FVIIa inhibitor were incubated for 15 minutes (min) at 25° C. Reactions were initiated by addition of a solution of full-length human TF (6 nM), FVIIa (0.75 nM), and PCPS (25 μM). FVIIa hydrolyses S2288, which was monitored for up to 60 min at 405 nm. Steady-state reaction velocity data (vs) was globally fit to Equation 1 for competitive inhibition. vs=Vmax[S]/([S]+Km(1+[I]/Ki)) (Eq. 1) where Vmax is maximum velocity, [S] is substrate concentration, Km is the Michaelis-Menten constant, [I] is the inhibitor concentration, and Ki is the inhibitor dissociation constant (GraFit, version 5, Erithacus Software Ltd, West Sussex, UK).

T1 sequence (P08709 213-466 limits assumed): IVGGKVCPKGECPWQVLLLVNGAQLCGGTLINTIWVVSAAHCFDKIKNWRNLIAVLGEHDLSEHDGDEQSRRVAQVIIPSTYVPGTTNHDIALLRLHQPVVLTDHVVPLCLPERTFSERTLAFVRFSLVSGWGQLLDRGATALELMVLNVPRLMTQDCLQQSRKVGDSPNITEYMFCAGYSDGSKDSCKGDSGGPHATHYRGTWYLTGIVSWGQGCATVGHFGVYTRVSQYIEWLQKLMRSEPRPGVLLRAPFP
T1 sequence (P08709 61-212 limits assumed): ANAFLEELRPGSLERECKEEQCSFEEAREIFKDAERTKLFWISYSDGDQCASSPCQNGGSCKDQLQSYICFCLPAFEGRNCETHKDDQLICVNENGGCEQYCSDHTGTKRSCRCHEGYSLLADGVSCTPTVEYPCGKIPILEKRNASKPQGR
T1 sequence (P13726 33-295 partner): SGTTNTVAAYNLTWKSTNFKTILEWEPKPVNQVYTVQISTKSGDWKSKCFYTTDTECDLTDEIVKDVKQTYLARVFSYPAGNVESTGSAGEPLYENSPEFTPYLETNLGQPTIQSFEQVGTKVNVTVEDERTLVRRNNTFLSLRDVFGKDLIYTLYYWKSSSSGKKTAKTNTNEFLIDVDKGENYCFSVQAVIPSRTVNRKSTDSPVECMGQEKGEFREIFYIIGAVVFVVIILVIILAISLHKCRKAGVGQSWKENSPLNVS

`CCOC(=O)CC1NC(=O)[C@H](Nc2ccc(C#N)cc2)c2ccc(OCC(F)F)c(c2)CCC(=O)Nc2cccc1c2` (some centres unmarked) gave a ring closure, isolated yield ([1]; 14-membered ring, HATU) of 21%.
Molecule `CN1Cc2cc(cc(F)c2OC(CF)CF)NC(=O)CCc2cc(ccc2OCC(F)F)C(Nc2ccc(C#N)cc2)C1=O` (centres unmarked) has a ring closure, isolated yield ([1]; from CNCc1cc(NC(=O)CCc2cc(C(Nc3ccc(C#N)cc3)C(=O)O)ccc2OCC(F)F)cc(F)c1OC(CF)CF, 14-membered ring, BOP) of 44%.
With `CN1Cc2cc(cc(F)c2OC(F)F)NC(=O)CCc2cccc(c2)C(Nc2ccc(C#N)cc2)C1=O` (centres unmarked) the ring closure, isolated yield ([1]; from CN(Cc1cc(N)cc(F)c1OC(F)F)C(=O)C(Nc1ccc(C#N)cc1)c1cccc(CCC(=O)O)c1, 14-membered ring, BOP/DMAP/DIPEA, DCM/DMF, 4.8 mM, 40.0 °C, 21.0 h) was 80%.
`CN1Cc2cc(cc(F)c2OCC(F)F)NC(=O)CCc2cc(ccc2OCC(F)F)C(Nc2ccc(C#N)cc2)C1=O` (centres unmarked) showed a ring closure, isolated yield ([1]; from CNCc1cc(NC(=O)CCc2cc(C(Nc3ccc(C#N)cc3)C(=O)O)ccc2OCC(F)F)cc(F)c1OCC(F)F, 14-membered ring, BOP) of 62%.
For `CN1Cc2cc(ccc2S(=O)(=O)C(F)(F)F)NC(=O)CCc2cc(ccc2OCC(F)F)C(Nc2ccc3c(N(C(=O)OC(C)(C)C)C(=O)OC(C)(C)C)ncc(F)c3c2)C1=O` (centres unmarked), the ring closure, isolated yield ([1]; from CNCc1cc(NC(=O)CCc2cc(C(Nc3ccc4c(N(C(=O)OC(C)(C)C)C(=O)OC(C)(C)C)ncc(F)c4c3)C(=O)O)ccc2OCC(F)F)ccc1S(=O)(=O)C(F)(F)F, 14-membered ring, BOP) was 45%.
`CN1Cc2cc(ccc2S(=O)(=O)C2CC2)NC(=O)CCc2cc(ccc2C2CC2)C(Nc2ccc3c(N(C(=O)OC(C)(C)C)C(=O)OC(C)(C)C)ncc(F)c3c2)C1=O` (centres unmarked) showed a ring closure, isolated yield ([1]; from CNCc1cc(NC(=O)CCc2cc(C(Nc3ccc4c(N(C(=O)OC(C)(C)C)C(=O)OC(C)(C)C)ncc(F)c4c3)C(=O)O)ccc2C2CC2)ccc1S(=O)(=O)C1CC1, 14-membered ring, BOP) of 82%.
Work on `CN1Cc2cc(ccc2S(=O)(=O)C2CC2)NC(=O)CCc2cc(ccc2F)C(Nc2ccc3c(N(C(=O)OC(C)(C)C)C(=O)OC(C)(C)C)ncc(F)c3c2)C1=O` (centres unmarked) yielded a ring closure, isolated yield ([1]; from CNCc1cc(NC(=O)CCc2cc(C(Nc3ccc4c(N(C(=O)OC(C)(C)C)C(=O)OC(C)(C)C)ncc(F)c4c3)C(=O)O)ccc2F)ccc1S(=O)(=O)C1CC1, 14-membered ring, BOP/DMAP/DIPEA, DCM/DMF, 25.0 °C, 12.0 h) of 30%.
Molecule `CN1Cc2cc(ccc2S(=O)(=O)C2CC2)NC(=O)CCc2cccc(c2)C(Nc2ccc3c(N(C(=O)OC(C)(C)C)C(=O)OC(C)(C)C)ncc(F)c3c2)C1=O` (centres unmarked) has a ring closure, isolated yield ([1]; from CNCc1cc(NC(=O)CCc2cccc(C(Nc3ccc4c(N(C(=O)OC(C)(C)C)C(=O)OC(C)(C)C)ncc(F)c4c3)C(=O)O)c2)ccc1S(=O)(=O)C1CC1, 14-membered ring, BOP/DMAP/DIPEA, DCM/DMF, 25.0 °C) of 41%.
Work on `CN1Cc2cc(ccc2S(=O)(=O)C2CC2)NC(=O)CCc2cccc(c2)C(Nc2ccc3c(N(C(=O)OC(C)(C)C)C(=O)OC(C)(C)C)nccc3c2)C1=O` (centres unmarked) yielded a ring closure, isolated yield ([1]; from CNCc1cc(NC(=O)CCc2cccc(C(Nc3ccc4c(N(C(=O)OC(C)(C)C)C(=O)OC(C)(C)C)nccc4c3)C(=O)O)c2)ccc1S(=O)(=O)C1CC1, 14-membered ring, BOP/DMAP/DIPEA, DCM/DMF, 23.3 mM, 25.0 °C, 12.0 h) of 50%.
`COc1c(F)cc2cc1CCC(=O)Nc1ccc(S(=O)(=O)C3CC3)c(c1)CN(C)C(=O)C2Nc1ccc2c(N(C(=O)OC(C)(C)C)C(=O)OC(C)(C)C)ncc(F)c2c1` (centres unmarked) gave a ring closure, isolated yield ([1]; from CNCc1cc(NC(=O)CCc2cc(C(Nc3ccc4c(N(C(=O)OC(C)(C)C)C(=O)OC(C)(C)C)ncc(F)c4c3)C(=O)O)cc(F)c2OC)ccc1S(=O)(=O)C1CC1, 14-membered ring, BOP/DMAP/DIPEA, DCM/DMF, 25.0 °C) of 18%.
With `COc1cc2cc(c1)C(Nc1ccc3c(N(C(=O)OC(C)(C)C)C(=O)OC(C)(C)C)ncc(F)c3c1)C(=O)N(C)Cc1cc(ccc1S(=O)(=O)C1CC1)NC(=O)CC2` (centres unmarked) the ring closure, isolated yield ([1]; from CNCc1cc(NC(=O)CCc2cc(OC)cc(C(Nc3ccc4c(N(C(=O)OC(C)(C)C)C(=O)OC(C)(C)C)ncc(F)c4c3)C(=O)O)c2)ccc1S(=O)(=O)C1CC1, 14-membered ring, BOP/DMAP/DIPEA, DCM/DMF, 25.0 °C, 12.0 h) was 69%.
For `COc1ccc2cc1COCC(=O)Nc1ccc(S(=O)(=O)C3CC3)c(c1)CN(C)C(=O)C2Nc1ccc2c(N(C(=O)OC(C)(C)C)C(=O)OC(C)(C)C)nccc2c1` (centres unmarked), the ring closure, isolated yield ([1]; from CNCc1cc(NC(=O)COCc2cc(C(Nc3ccc4c(N(C(=O)OC(C)(C)C)C(=O)OC(C)(C)C)nccc4c3)C(=O)O)ccc2OC)ccc1S(=O)(=O)C1CC1, 15-membered ring, BOP/DMAP/DIPEA, DCM/DMF, 25.0 °C, 12.0 h) was 54%.
Work on `C[C@@H]1CC(=O)Nc2ccc(OC(F)F)c(c2)CN(C)C(=O)C(Nc2ccc(C#N)cc2)c2ccc(OCc3ccccc3)c1c2` (some centres unmarked) yielded a ring closure, isolated yield ([1]; from CNCc1cc(NC(=O)C[C@@H](C)c2cc(C(Nc3ccc(C#N)cc3)C(=O)O)ccc2OCc2ccccc2)ccc1OC(F)F, 14-membered ring, BOP) of 64%.
In the case of `C[C@@H]1CC(=O)Nc2ccc(S(=O)(=O)C3CC3)c(c2)CN(C)C(=O)C(Nc2ccc3c(N(C(=O)OC(C)(C)C)C(=O)OC(C)(C)C)ncc(F)c3c2)c2ccc(OCc3ccccc3)c1c2` (some centres unmarked), the ring closure, isolated yield ([1]; from CNCc1cc(NC(=O)C[C@@H](C)c2cc(C(Nc3ccc4c(N(C(=O)OC(C)(C)C)C(=O)OC(C)(C)C)ncc(F)c4c3)C(=O)O)ccc2OCc2ccccc2)ccc1S(=O)(=O)C1CC1, 14-membered ring, BOP) was 19%.
Molecule `C[C@H]1CC(=O)Nc2ccc(S(=O)(=O)C3CC3)c(c2)CN(C)C(=O)C(Nc2ccc3c(N(C(=O)OC(C)(C)C)C(=O)OC(C)(C)C)ncc(F)c3c2)c2ccc(OCc3ccccc3)c1c2` (some centres unmarked) has a ring closure, isolated yield ([1]; from CNCc1cc(NC(=O)C[C@H](C)c2cc(C(Nc3ccc4c(N(C(=O)OC(C)(C)C)C(=O)OC(C)(C)C)ncc(F)c4c3)C(=O)O)ccc2OCc2ccccc2)ccc1S(=O)(=O)C1CC1, 14-membered ring, BOP/DMAP/DIPEA, DCM/DMF, 25.0 °C) of 24%.
Molecule `CCCCOc1ccc2cc1CCC(=O)Nc1ccc(S(=O)(=O)C3CC3)c(c1)CN(C)C(=O)[C@@H]2Nc1ccc2c(N)ncc(F)c2c1` [Example 23, (R)-11-(1-Amino-4-fluoro-isoquinolin-6-ylamino)-7-butoxy-16-cyclopropanesulfonyl-13-methyl-2,13-diaza-tricyclo[13.3.1.1^6,10]icosa-1(19),6,8,10(20),15,17-hexaene-3,12-dione trifluroracetic acid salt] has a pKi (FVIIa) of 8.30.
For `CC(C)COc1ccc2cc1CCC(=O)Nc1ccc(S(=O)(=O)C3CC3)c(c1)CN(C)C(=O)[C@@H]2Nc1ccc2c(N)ncc(F)c2c1` [Example 24, (R)-11-(1-Amino-4-fluoro-isoquinolin-6-ylamino)-16-cyclopropanesulfonyl-7-isobutoxy-13-methyl-2,13-diaza-tricyclo[13.3.1.1^6,10]icosa-1(19),6,8,10(20),15,17-hexaene-3,12-dione trifluroracetic acid salt], the pKi (FVIIa) was 8.30.
`CN1Cc2cc(ccc2S(=O)(=O)C2CC2)NC(=O)CCc2cc(ccc2OCC2CCC2)[C@@H](Nc2ccc3c(N)ncc(F)c3c2)C1=O` [Example 25, (R)-11-(1-Amino-4-fluoro-isoquinolin-6-ylamino)-7-cyclobutylmethoxy-16-cyclopropanesulfonyl-13-methyl-2,13-diaza-tricyclo[13.3.1.1^6,10]icosa-1(19),6,8,10(20),15,17-hexaene-3,12-dione trifluroracetic acid salt] gave a pKi (FVIIa) of 8.22.
Work on `CC(C)Oc1ccc2cc1CCC(=O)Nc1ccc(S(=O)(=O)C3CC3)c(c1)CN(C)C(=O)[C@@H]2Nc1ccc2c(N)ncc(F)c2c1` [Example 26, (R)-11-(1-Amino-4-fluoro-isoquinolin-6-ylamino)-16-cyclopropanesulfonyl-7-isopropoxy-13-methyl-2,13-diaza-tricyclo[13.3.1.1^6,10]icosa-1(19),6,8,10(20),15,17-hexaene-3,12-dione trifluroracetic acid salt] yielded a pKi (FVIIa) of 8.30.
Molecule `CN1Cc2cc(ccc2S(=O)(=O)C2CC2)NC(=O)N(CC2CCC2)CCc2cccc(c2)C(Nc2ccc3c(N)ncc(F)c3c2)C1=O` (centres unmarked) [Example 27, 5-(1-Amino-4-fluoro-isoquinolin-6-ylamino)-13-cyclobutylmethyl-19-cyclopropanesulfonyl-3-methyl-3,13,15-triaza-tricyclo[14.3.1.1^6,10]henicosa-1(19),6(21),7,9,16(20),17-hexaene-4,14-dione trifluoroacetic acid salt] has a pKi (FVIIa) of 6.83.
`C[C@@H]1CC(=O)Nc2cccc(c2)[C@@H](CC(=O)O)NC(=O)[C@H](Nc2ccc(C(=N)N)cc2)c2ccc(OCC(F)F)c1c2` [Example 44, trifluoroacetic acid salt] showed a pKi (FVIIa) of 8.30.
For “(R)-11-(1-Amino-4-fluoro-isoquinolin-6-ylamino)-16-cyclopropane sulfonyl-7-(2,2-difluoro-ethoxy)-13-methyl-2,13-diaza-tricyclo[13.3.1.1^6,10]icosa-1(18),6,8,10(20),15(19),16-hexaene-3,12-dione trifluoroacetic acid salt [Example 33]”, the pKi (FVIIa) was 7.68.
Molecule “(R)-11-(5-Amino-8-fluoro-naphthalen-2-ylamino)-16-cyclopropanesulfonyl-7-cyclopropyl-13-methyl-2,13-diaza-tricyclo[13.3.1.1^6,10]icosa-1(18),6,8,10(20),15(19),16-hexaene-3,12-dione trifluoroacetic acid salt [Example 36]” has a pKi (FVIIa) of 8.30.
